“And” between values parts separate entries of the source, which are not always exact repeats. Equal values may be shown once. Read-outs that look alike come from different tables or passages of the source.
Columns and labels:
[1] = Brain and plasma exposure following IV and PO administration to mice; format: in vivo; conditions: for Projected free brain @ 10 mpk / Brain Cmax @ 10 mpk: 10 mg/kg PO; for half-life / clearance: mouse, plasma; for clearance: read-out: IV PK Cl (converted); for brain Cmax exposure, fold higher than comparator 1 / projected free brain concentration, fold higher than comparator 1: comparator 1 data scaled for comparison
Procedure: Compounds were dosed in mice at either 10 mg/kg or 30 mg/kg PO, and were dosed at 1 mg/kg IV. Three animals for collection at each time point for plasma via bleeding at 0.25, 0.5, 1, 4, 12 and 24 h. Terminal bleeding for plasma and sampling for brain at 0.25, 0.5, 1, 4, 12 and 24 h (also three animals per brain exposure time point group). Total of six time points for plasma and six time points for brain.
Plasma: The animal was restrained manually at the designated time points, approximately 150 μL blood/time point was collected into K2EDTA tube via retro orbital puncture or cardiac puncture under anesthesia with Isoflurane. The blood sample was centrifuged (2000 g, 4° C., 5 min) to generate plasma within 30 min after bleeding.
Brain: At the designated time points, a mid-line incision was made in the animals scalp and the skin was retracted. Using small bone cutters and rongeurs, removed the skull overlying the brain. Removed the brain using a spatula and rinse with cold saline. Placed the brain in screw-top tubes, and then stored the tubes under −70° C. until analysis.

[2] = test system: human erythroid progenitors (CFU-E, BFU-E); assay: Erythroid CFU assay (colony forming cell assay, bone marrow); format: cell-based; conditions: 14 days in culture
Procedure: Compounds were tested to evaluate the potential effects on human erythroid and myeloid progenitors using colony forming cell assays. Clonogenic progenitors of human erythroid (CFU-E, BFU-E), granulocyte-monocyte (CFU-GM) and multipotential (CFU-GEMM) lineages were assessed in a semi-solid methylcellulose-based media formulation containing rhlL-3 (10 ng/mL), rhGM-SCF (10 ng/mL), rhSCF (50 ng/mL) and Epo (3 U/mL).
Normal human bone marrow light density cells derived from normal bone marrow (NorCal Biologics, California), were stored in the gaseous phase of liquid nitrogen (−152° C.) until required for the assay. On the day of the experiment, the cells were thawed rapidly, the contents of each vial was diluted in 10 mL of Iscove's modified Dulbecco's medium containing 10% fetal bovine serum (IMDM+10% FBS) and washed by centrifugation (approximately 1200 r.p.m. for 10 minutes, room temperature). The supernatant was discarded and the cell pellets resuspended in a known volume of IMDM+10% FBS. A cell count (3% glacial acetic acid) and viability assessment (trypan blue exclusion test) was performed for the bone marrow sample.
On the day of the experiment, the compounds were dissolved in DMSO to a stock concentration of 10 mM. Serial dilutions were prepared from the stock concentration to achieve concentrations of 2 and 0.4 mM. When added to the methylcellulose-based media at 1:1000 (v/v), the final test concentrations of 10, 2 and 0.4 μM were achieved. Additionally, 5-FU was evaluated at 1.0, 0.1 and 0.01 μg/mL.
Clonogenic progenitors of the human erythroid (CFU-E and BFU-E) and myeloid (CFU-GM) lineages were set up in the methylcellulose-based media formulations described above. All compounds were added to the medium to give the final desired concentrations (10, 2 and 0.4 μM). 5-Fluorouracil (Sigma Aldrich) was used as a positive control for progenitor proliferation (inhibition of colony growth) and was introduced to the human bone marrow cultures at 1.0, 0.1, and 0.01 μg/mL. Solvent control cultures (containing no compound but 0.1% DMSO) as well as standard controls (containing no compound and no DMSO) were also initiated.
Human myeloid and erythroid progenitor assays were initiated at 2.0×10^4 cells per culture. Following 14 days in culture, myeloid and erythroid colonies were assessed microscopically and scored by trained personnel. The colonies were divided into the following categories based on size and morphology: CFU-E, BFU-E, CFU-GM and CFU-GEMM.
The mean±one standard deviation of three replicate cultures was calculated for progenitors of each category (CFU-E, BFU-E, etc.). Two-tailed t-tests were performed to assess if there was a difference in the number of colonies generated between solvent control and treated cultures. Due to the potential subjectivity of colony enumeration, a p value of less than 0.01 is deemed significant. To calculate the concentration of 50% inhibition of colony growth (IC50) for each compound, a dose response curve was generated plotting the log of the compound concentration versus the percentage of control colony growth using XLfit software (IDBS). The concentration of 50% inhibition of colony growth (IC50) was calculated based on the sigmoid curve fit using Dose-Response, One-Site Model formula: y=A+[(B−A)/(1+((C/x)^D))], where A=the initial value (baseline response), B=maximum response, C=center (drug concentration that provokes a response halfway between A and B) and D=slope of the curve at midpoint. Further, plots and additional dose response curves were generated using GraphPad Prism 7.0.
Erythroid (CFU-E and BFU-E), myeloid (CFU-GM) and multi-potential (CFU-GEMM) colony enumeration was performed by trained personnel. The distribution of colony types as well as general colony and cellular morphology was analyzed. For statistical analysis colony numbers in compound treated cultures were compared to the solvent control cultures. […]

[3] = iv, 1 mg/kg, mice, 1 mg/kg IV, read-out: IV PK T1/2 (converted)
[4] = po, 10 mg/kg, mice, PO, read-out: PO T1/2 (converted)

Structure (SMILES) | Projected free brain @ 10 mpk ([1]; mice) | Brain Cmax @ 10 mpk ([1]; mice) | half-life [1, 3] | half-life [1, 4] | clearance ([1]; mice, 1 mg/kg IV) | Erythroid % control @ 10 uM dose [2] | PO T1/2 ([1]; mice, PO) | brain Cmax exposure, fold higher than comparator 1 [1] | projected free brain concentration, fold higher than comparator 1 [1]
CCc1ncc2c(n1)CN(C(=O)Nc1nc(-c3cccs3)ccc1N)C2 [Compound 3] | 0.387 µM | 526 ng/g | 0.737 h | 1.48 h | 25 mL/min/kg | 46.6% |  |  | 
CCc1cc2c(cn1)CN(C(=O)Nc1nc(-c3cccnc3)ccc1N)C2 [Compound 8] | 0.222 µM | 279 ng/g | 0.628 h | 1.27 h | 35.2 mL/min/kg | 98% |  |  | 
COCCn1cc2c(n1)CN(C(=O)Nc1nc(-c3ccc(F)cc3F)ccc1N)C2 [Compound 9] | 0.881 µM and 0.795 µM | 1533 ng/g and 1383 ng/g | 0.644 h | 1.39 h | 27.8 mL/min/kg | 40.4% | 1.01 h |  | 
Cc1ncc2c(n1)CN(C(=O)Nc1nc(-c3ccc(F)s3)ccc1N)C2 [Compound 2] | 0.438 µM | 760 ng/g | 0.643 h | 1.25 h | 67.7 mL/min/kg | 40% |  |  | 
Nc1ccc(-c2ccc(F)cc2)nc1NC(=O)N1Cc2cn(C3COC3)nc2C1 [Compound 1] | 0.324 µM | 636 ng/g | 3.11 h | 2.05 h | 7.02 mL/min/kg | 37% |  |  | 
Cc1ncc(-c2ccc(N)c(NC(=O)N3Cc4cn(CC(F)F)nc4C3)n2)s1 [Compound 5] | 0.302 µM | 277 ng/g | 2.81 h | 2.33 h | 5.9 mL/min/kg |  |  |  | 

Continued, values first:

Projected free brain @ 10 mpk ([1]; mice) | Brain Cmax @ 10 mpk ([1]; mice) | half-life [1, 3] | half-life [1, 4] | clearance ([1]; mice, 1 mg/kg IV) | Erythroid % control @ 10 uM dose [2] | PO T1/2 ([1]; mice, PO) | brain Cmax exposure, fold higher than comparator 1 [1] | projected free brain concentration, fold higher than comparator 1 [1] | Structure (SMILES)
0.386 µM | 237 ng/g | 0.513 h | 3.67 h | 29.5 mL/min/kg | 93% |  |  |  | Cc1cc2c(cn1)CN(C(=O)Nc1nc(-c3cccnc3)ccc1N)C2 [Compound 12]
0.568 µM | 1241 ng/g | 2.07 h | 2.54 h | 24.8 mL/min/kg | 59.6% |  | ~7 fold | 5 fold | CCc1ncc2c(n1)CN(C(=O)Nc1nc(-c3ccc(F)cc3)ccc1N)C2 [Compound 17]
0.403 µM | 633 ng/g | 2.09 h | 3.22 h | 14.3 mL/min/kg | 53% |  | 4 fold | 4 fold | Cc1ncc2c(n1)CN(C(=O)Nc1nc(-c3ccc(F)cc3)ccc1N)C2 [Compound 14]

Reference: US10793567B2, “Bicyclic inhibitors of histone deacetylase” (Rodin Therapeutics, Inc., priority 2017, dated 2020)
